# Data taken from patent US11472791B2 (Incyte Corporation, priority 2019, dated 2022).
# pIC50: −log10 of the molar value.
# Molecular target: CDK2/Cyclin E1 (Homo sapiens (Human), UniProt P24941)
# Assay: CDK2/Cyclin E1 HTRF enzyme activity assay
# Type: biochemical
# Conditions: 1 mM ATP
# Experimental: Assays are conducted in white 384-well polystyrene plates in a final reaction volume of 8 μL. […] HTRF signals are read after 1 hour at room temperature on a PHERAstar FS plate reader (BMG Labtech). Data is analyzed with IDBS XLFit and GraphPad Prism 5.0 software using a three or four parameter dose response curve to determine IC50 for each compound.
row,pIC50,Structure (SMILES)
1,> 7.30,"CC(C)(O)Cn1cc(-c2nc(NC3CCN(S(=O)(=O)CCN4CCCC4)CC3)ncc2C(F)(F)F)cn1 [Example 82, 2-Methyl-1-(4-(2-((1-((2-(pyrrolidin-1-yl)ethyl)sulfonyl)piperidin-4-yl)amino)-5-(trifluoromethyl)pyrimidin-4-yl)-1H-pyrazol-1-yl)propan-2-ol]"
2,> 7.30,"CC(C)(O)Cn1cc(-c2nc(NC3CCN(S(=O)(=O)CCCO)CC3)ncc2C(F)(F)F)cn1 [Example 92, 3-((4-((4-(1-(2-Hydroxy-2-methylpropyl)-1H-pyrazol-4-yl)-5-(trifluoromethyl)pyrimidin-2-yl)amino)piperidin-1-yl)sulfonyl)propan-1-ol]"
3,> 7.30,"CCS(=O)(=O)N1CCC(Nc2ncc(C(F)(F)F)c(-c3cnn(C(C)(C)C(N)=O)c3)n2)CC1 [Example 97, 2-(4-(2-((1-(Ethylsulfonyl)piperidin-4-yl)amino)-5-(trifluoromethyl)pyrimidin-4-yl)-1H-pyrazol-1-yl)-2-methylpropanamide]"
4,> 7.30,"CC(C)(C(N)=O)n1cc(-c2nc(NC3CCN(S(=O)(=O)C4CC4)CC3)ncc2C(F)(F)F)cn1 [Example 98, 2-(4-(2-((1-(Cyclopropylsulfonyl)piperidin-4-yl)amino)-5-(trifluoromethyl)pyrimidin-4-yl)-1H-pyrazol-1-yl)-2-methylpropanamide]"
5,> 7.30,"Cc1cc(CN2CCN(C)CC2)ccc1-n1cc(-c2nc(NC3CCN(S(=O)(=O)c4cn(C)cn4)CC3)ncc2C(F)(F)F)cn1 [Example 100, N-(1-((1-Methyl-1H-imidazol-4-yl)sulfonyl)piperidin-4-yl)-4-(1-(2-methyl-4-((4-methylpiperazin-1-yl)methyl)phenyl)-1H-pyrazol-4-yl)-5-(trifluoromethyl)pyrimidin-2-amine]"
6,> 7.30,"Cc1cc(CN2CCN(C)CC2)ccc1-n1cc(-c2nc(N[C@H]3CCN(S(C)(=O)=O)C[C@H]3F)ncc2C(F)(F)F)cn1 [Example 101, N-((3R,4S)-3-Fluoro-1-(methylsulfonyl)piperidin-4-yl)-4-(1-(2-methyl-4-((4-methylpiperazin-1-yl)methyl)phenyl)-1H-pyrazol-4-yl)-5-(trifluoromethyl)pyrimidin-2-amine]"
7,> 7.30,"Cc1cc(CN2CCN(C)CC2)ccc1-n1cc(-c2nc(N[C@H]3CCN(S(=O)(=O)c4cn(C)cn4)C[C@H]3F)ncc2C(F)(F)F)cn1 [Example 102, N-((3R,4S)-3-Fluoro-1-((1-methyl-1H-imidazol-4-yl)sulfonyl)piperidin-4-yl)-4-(1-(2-methyl-4-((4-methylpiperazin-1-yl)methyl)phenyl)-1H-pyrazol-4-yl)-5-(trifluoromethyl)pyrimidin-2-amine]"
8,> 7.30,"CC(=O)N1CCN(Cc2ccc(-n3cc(-c4nc(NC5CCN(S(=O)(=O)c6cn(C)cn6)CC5)ncc4C(F)(F)F)cn3)c(C)c2)CC1 [Example 105, 1-(4-(3-Methyl-4-(4-(2-((1-((1-methyl-1H-imidazol-4-yl)sulfonyl)piperidin-4-yl)amino)-5-(trifluoromethyl)pyrimidin-4-yl)-1H-pyrazol-1-yl)benzyl)piperazin-1-yl)ethan-1-one]"
9,> 7.30,"Cc1cc(CN2CCOCC2)ccc1-n1cc(-c2nc(NC3CCN(S(=O)(=O)c4cn(C)cn4)CC3)ncc2C(F)(F)F)cn1 [Example 107, N-(1-((1-Methyl-1H-imidazol-4-yl)sulfonyl)piperidin-4-yl)-4-(1-(2-methyl-4-(morpholinomethyl)phenyl)-1H-pyrazol-4-yl)-5-(trifluoromethyl)pyrimidin-2-amine]"
10,> 7.30,"CN1CCN(Cc2ccc(-n3cc(-c4nc(N[C@H]5CCN(S(C)(=O)=O)C[C@H]5F)ncc4C#N)cn3)c(Cl)c2)CC1 [Example 111, 4-(1-(2-Chloro-4-((4-methylpiperazin-1-yl)methyl)phenyl)-1H-pyrazol-4-yl)-2-(((3R,4S)-3-fluoro-1-(methylsulfonyl)piperidin-4-yl)amino)pyrimidine-5-carbonitrile]"
11,> 7.30,"CCS(=O)(=O)N1CCC(Nc2ncc(C#N)c(-c3cnn(-c4ccc(CNC)cc4Cl)c3)n2)CC1 [Example 112, 4-(1-(2-Chloro-4-((methylamino)methyl)phenyl)-1H-pyrazol-4-yl)-2-((1-(ethylsulfonyl)piperidin-4-yl)amino)pyrimidine-5-carbonitrile]"
12,> 7.30,"CNCc1ccc(-n2cc(-c3nc(NC4CCN(S(=O)(=O)C5CC5)CC4)ncc3C#N)cn2)c(Cl)c1 [Example 114, 4-(1-(2-Chloro-4-((methylamino)methyl)phenyl)-1H-pyrazol-4-yl)-2-((1-(cyclopropylsulfonyl)piperidin-4-yl)amino)pyrimidine-5-carbonitrile]"

# Second part, the compound before the results:
row,Structure (SMILES),pIC50
1,"CC(C)(O)Cn1cc(-c2nc(NC3CCN(S(=O)(=O)CCCCN4CCCC4)CC3)ncc2C(F)(F)F)cn1 [Example 80, 2-Methyl-1-(4-(2-((1-((4-(pyrrolidin-1-yl)butyl)sulfonyl)piperidin-4-yl)amino)-5-(trifluoromethyl)pyrimidin-4-yl)-1H-pyrazol-1-yl)propan-2-ol]",> 7.30
2,"CC(C)(O)Cn1cc(-c2nc(NC3CCN(S(=O)(=O)CCCCN4CCCCC4)CC3)ncc2C(F)(F)F)cn1 [Example 81, 2-Methyl-1-(4-(2-((1-((4-(piperidin-1-yl)butyl)sulfonyl)piperidin-4-yl)amino)-5-(trifluoromethyl)pyrimidin-4-yl)-1H-pyrazol-1-yl)propan-2-ol]",> 7.30
3,"CN(C)CCS(=O)(=O)N1CCC(Nc2ncc(C(F)(F)F)c(-c3cnn(CC(C)(C)O)c3)n2)CC1 [Example 83, 1-(4-(2-((1-((2-(Dimethylamino)ethyl)sulfonyl)piperidin-4-yl)amino)-5-(trifluoromethyl)pyrimidin-4-yl)-1H-pyrazol-1-yl)-2-methylpropan-2-ol]",> 7.30
4,"CC(C)(O)Cn1cc(-c2nc(NC3CCN(S(=O)(=O)CCN4CCOCC4)CC3)ncc2C(F)(F)F)cn1 [Example 84, 2-Methyl-1-(4-(2-((1-((2-morpholinoethyl)sulfonyl)piperidin-4-yl)amino)-5-(trifluoromethyl)pyrimidin-4-yl)-1H-pyrazol-1-yl)propan-2-ol]",> 7.30
5,"CN1CC(S(=O)(=O)N2CCC(Nc3ncc(C(F)(F)F)c(-c4cnn(CC(C)(C)O)c4)n3)CC2)C1 [Example 85, 2-Methyl-1-(4-(2-((1-((1-methylazetidin-3-yl)sulfonyl)piperidin-4-yl)amino)-5-(trifluoromethyl)pyrimidin-4-yl)-1H-pyrazol-1-yl)propan-2-ol]",> 7.30
6,"CN1CCC(S(=O)(=O)N2CCC(Nc3ncc(C(F)(F)F)c(-c4cnn(CC(C)(C)O)c4)n3)CC2)CC1 [Example 87, 2-Methyl-1-(4-(2-((1-((1-methylpiperidin-4-yl)sulfonyl)piperidin-4-yl)amino)-5-(trifluoromethyl)pyrimidin-4-yl)-1H-pyrazol-1-yl)propan-2-ol]",> 7.30
7,"CC(C)(O)Cn1cc(-c2nc(NC3CCN(S(=O)(=O)CCCCO)CC3)ncc2C(F)(F)F)cn1 [Example 93, 4-((4-((4-(1-(2-Hydroxy-2-methylpropyl)-1H-pyrazol-4-yl)-5-(trifluoromethyl)pyrimidin-2-yl)amino)piperidin-1-yl)sulfonyl)butan-1-ol]",> 7.30
8,"CC(C)(O)CCS(=O)(=O)N1CCC(Nc2ncc(C(F)(F)F)c(-c3cnn(CC(C)(C)O)c3)n2)CC1 [Example 94, 4-((4-((4-(1-(2-Hydroxy-2-methylpropyl)-1H-pyrazol-4-yl)-5-(trifluoromethyl)pyrimidin-2-yl)amino)piperidin-1-yl)sulfonyl)-2-methylbutan-2-ol]",> 7.30
9,"Cc1cc(CN2CCN(C)CC2)ccc1-n1cc(-c2nc(N[C@H]3CCN(S(=O)(=O)c4ccn(C)n4)C[C@H]3F)ncc2C(F)(F)F)cn1 [Example 103, N-((3R,4S)-3-Fluoro-1-((1-methyl-1H-pyrazol-3-yl)sulfonyl)piperidin-4-yl)-4-(1-(2-methyl-4-((4-methylpiperazin-1-yl)methyl)phenyl)-1H-pyrazol-4-yl)-5-(trifluoromethyl)pyrimidin-2-amine]",> 7.30
10,"CC(=O)N1CCN(Cc2ccc(-n3cc(-c4nc(N[C@H]5CCN(S(=O)(=O)c6cn(C)cn6)C[C@H]5F)ncc4C(F)(F)F)cn3)c(C)c2)CC1 [Example 104, 1-(4-(4-(4-(2-(((3R,4S)-3-Fluoro-1-((1-methyl-1H-imidazol-4-yl)sulfonyl)piperidin-4-yl)amino)-5-(trifluoromethyl)pyrimidin-4-yl)-1H-pyrazol-1-yl)-3-methylbenzyl)piperazin-1-yl)ethan-1-one]",> 7.30
11,"Cc1cc(CN(C)C)ccc1-n1cc(-c2nc(NC3CCN(S(=O)(=O)c4cn(C)cn4)CC3)ncc2C(F)(F)F)cn1 [Example 106, 4-(1-(4-((Dimethylamino)methyl)-2-methylphenyl)-1H-pyrazol-4-yl)-N-(1-((1-methyl-1H-imidazol-4-yl)sulfonyl)piperidin-4-yl)-5-(trifluoromethyl)pyrimidin-2-amine]",> 7.30
12,"CN1CCN(Cc2ccc(-n3cc(-c4nc(NC5CCN(S(=O)(=O)c6cn(C)cn6)CC5)ncc4Cl)cn3)c(Cl)c2)CC1 [Example 108, 5-Chloro-4-(1-(2-chloro-4-((4-methylpiperazin-1-yl)methyl)phenyl)-1H-pyrazol-4-yl)-N-(1-((1-methyl-1H-imidazol-4-yl)sulfonyl)piperidin-4-yl)pyrimidin-2-amine]",> 7.30
13,"Cc1cc(CN2CCN(C)CC2)ccc1-n1cc(-c2nc(NC3CCN(S(=O)(=O)c4cn(C)cn4)CC3)ncc2Cl)cn1 [Example 109, 5-Chloro-N-(1-((1-methyl-1H-imidazol-4-yl)sulfonyl)piperidin-4-yl)-4-(1-(2-methyl-4-((4-methylpiperazin-1-yl)methyl)phenyl)-1H-pyrazol-4-yl)pyrimidin-2-amine]",> 7.30
14,"Cc1cc(CN2CCN(C)CC2)ccc1-n1cc(-c2nc(NC3CCN(S(=O)(=O)c4ccn(C)n4)CC3)ncc2Cl)cn1 [Example 110, 5-Chloro-N-(1-((1-methyl-1H-pyrazol-3-yl)sulfonyl)piperidin-4-yl)-4-(1-(2-methyl-4-((4-methylpiperazin-1-yl)methyl)phenyl)-1H-pyrazol-4-yl)pyrimidin-2-amine]",> 7.30
